Measured values published in patent publication US12569495B2, “Inhibitors of porcine reproductive and respiratory syndrome virus” (UNIVERSITY OF CONNECTICUT, priority 2020, dated 2026).
Values joined by “and” are separate entries in the source; they are usually repeats but may differ in a detail not shown here. Identical values can stand only once. “Also recorded” adds a separate entry of the source.

Tests used:
[1] = system: 3 Type II PRRSV strains (VR-2332, SDSU73, NADC30); assay: PRRSV titration assay, Type II strains; type: cell-based; conditions: 15 μM; PAMs; 24 h
Description: (§1) For PRRSV infection of PAM cells, PAMs were seeded one day prior to infection. Control cells were treated with DMSO and test cells were treated with the selected screening compounds (5-20 μM) for 4 h before inoculation, during the 1 h PRRSV inoculation, and for 24 h after inoculation. Cells were inoculated with VR-2332, SDSU73, NADC30 or Lelystad PRRSV at MOI=0.1 for 1 h. The 24 h cell medium supernatant was stored at −80° C. until use.
For PRRSV titration assay, MARC145 cells were seeded in 48-well plates and grew to ˜80% density before inoculation. Viral supernatants were prepared by 10-fold serial dilution, and 100 μl of the dilutions was added per well in six replicates. Inocula were removed from cells after 2 h and replaced with 0.5 mL of DMEM supplemented with 2% FBS, 2 mM glutamine, 0.1 mM MEM non-essential amino acids, 50 U/mL penicillin, and 50 μg/mL streptomycin (Invitrogen). Cells were cultured at 37° C. for 6 days and any cytopathic effects were observed and recorded. The PRRSV titer was calculated using the Reed and Muench method and expressed as median tissue culture infectious dose (TCID50/mL). Reed and Muench, Am. J. Epidemiol. 27(3): 493-497 (1938).
The inhibitory effect of B7 was further tested on multiple strains of PRRSV. […]

[2] = system: PRRSV strains VR-2332, SDSU73, NADC30 (Type II), or Lelystad (Type I); assay: qRT-PCR for PRRSV RNA in PAMs infected by different strains; type: cell-based; conditions: 15 μM; 4 h pre-treatment, 24 h post
Description: Total RNA was extracted from PAMs infected with PRRSV using RNeasy Mini Kit (Qiagen, Germantown, MD) according to the manufacturer's instruction. RNA concentrations were measured using a Nanodrop spectrophotometer (Thermo Fisher Scientific). GAPDH was used as a housekeeping gene for gene expression normalization. Data were processed with the software associated with ABI 7500.
as §1
The inhibitory effect of B7 was further tested on multiple strains of PRRSV. […] This inhibitory effect is further confirmed by viral titration results for the culture media of infected PAMs, with 2.8-3.1 log reduction of viral titers across the 3 Type II PRRSV strains and 2.2 log reduction of viral titer for the type I strain (Lelystad) by 15 μM B7 treatment (FIG. 5D). Thus, compound B7 indeed inhibits the PRRSV infection of PAMs. […]

[3] = MTT cytotoxicity assay in PAMs; type: cell-based, pig; conditions: pig, porcine alveolar macrophages (PAMs), 24 h incubation, read-out: LC50, MTT assay
Description: (§2) The cytotoxicity of selected screening compounds was determined in porcine alveolar macrophages (PAMs) the principal host cell of productive PRRSV infection. Briefly, various concentrations of the compounds were added to PAMs seeded in 24-well plates and incubated for 24 h. Then 50 μl of the MTT assay labeling reagent (In Vitro Toxicology Assay Kit, MTT based, Sigma-Aldrich) were added to each well and incubated for 4 h before 500 μl of the solubilization solution was added into each well to fully dissolve the formazan crystal by overnight incubation. The absorbance of samples was measured using a spectrophotometry microplate reader at 600 nm. PAMs treated with DMSO served as the controls.

[4] = system: porcine alveolar macrophages (PAMs); assay: MTT cytotoxicity assay in PAMs; type: cell-based, pig
Description: as §2

Rat acute toxicity study = type: in vivo, Sprague Dawley laboratory male rats
Description: The study was conducted as: • 1. Eight 10-week Sprague Dawley laboratory male rats (˜260 g each) were randomly selected into two groups (n=4), with group 1 for control and group 2 for B7-treatment. • 2. Day 0, injection of B7 drug. The intramuscular (IM) injection was vehicle for group 1, and 4 mg/kg B7 per rat for group 2, with 0.15 mL of volume per rat, to the left thigh region. The B7 was dissolved in vehicle containing 30% DMSO and 50% propylene glycol (PG), and 20% 20 mM Tris·HCl, pH 8.0. • 3. Days 1-7 observation of rats with daily body weight and temperature measurement and making records of any abnormal behavior. • 4. Day 7 necropsy: Euthanize the rats with CO2, immediately followed by blood sample collection from heart. Conduct postmortem rat gross-anatomic pathology analysis (brain, heart, lung, liver, kidney, spleen). • 5. Conduct clinical pathology analysis (CBC/Chemistry by IDDEX Bioanalytics) for the collected blood samples.

[5] = rat, IM 4 mg/kg, Day 7 blood, mean n=4

In the case of Cc1cc(F)ccc1S(=O)(=O)Nc1nc2ccccc2nc1Nc1cccc(S(=O)(=O)N2CCOCC2)c1 [Compound B7, 4-fluoro-2-methyl-N-[3-(3-morpholin-4-ylsulfonylanilino)quinoxalin-2-yl]benzenesulfonamide], the “log reduction of viral titers across the 3 Type II PRRSV strains” value [1] is reported as 2.8-3.1 log, the “viral RNA detected in infected PAMs (qRT-PCR), all PRRSV strains” value [2] is reported as “significantly decreased the viral RNA; also recorded: significantly inhibited the infection” and the CC50 at 24 h [3] is reported as 81.7 µM. The “concentrations well-tolerated by PAMs (MTT assay)” value ([4]; 24 h) was “below 25 μM”, the IC50 ([4]; Sus scrofa, Macrophage, 24 h incubation, read-out: IC50, cell viability in MTT assay) was 81.7 µM and the “Lipemia Index” value (Rat acute toxicity study; rat, IM 4 mg/kg, Day 7 blood) was “Normal”. It also gave an ALB/GLOB ratio (Rat acute toxicity study; [5]) of 1.2, an ALP (Rat acute toxicity study; [5]) of 277.5 U/L and an ALT (Rat acute toxicity study; [5]) of 95.5 U/L. The AST (Rat acute toxicity study; [5]) was 210.3 U/L and 210.25 U/L, the Albumin (Rat acute toxicity study; [5]) was 3.5 g/dL and the BUN (Rat acute toxicity study; [5]) was 16.8 mg/dL. For the same compound, the “BUN/Creatinine Ratio” value (Rat acute toxicity study; [5]) was 76.7, the “Basophil” value (Rat acute toxicity study; [5]) was 13.5 µL⁻¹ and the “Basophils (%)” value (Rat acute toxicity study; [5]) was 0.3%. The “Bicarbonate TCO2” value (Rat acute toxicity study; [5]) was 32.8 mmol/L, the “Bilirubin - Conjugated” value (Rat acute toxicity study; [5]) was 0.0 mg/dL and the “Bilirubin - Unconjugated” value (Rat acute toxicity study; [5]) was 0.1 mg/dL. It also gave a Calcium (Rat acute toxicity study; [5]) of 11.8 mg/dL, a Chloride (Rat acute toxicity study; [5]) of 97.0 mmol/L and a Cholesterol (Rat acute toxicity study; [5]) of 76.0 mg/dL. For the same compound, the Creatine kinase (Rat acute toxicity study; [5]) was 585.5 U/L, the Creatinine (Rat acute toxicity study; [5]) was 0.2 mg/dL and the “Eosinophil” value (Rat acute toxicity study; [5]) was 19.0 µL⁻¹. The “Eosinophils (%)” value (Rat acute toxicity study; [5]) was 0.5%, the Globulin (Rat acute toxicity study; [5]) was 2.9 g/dL and the Glucose (Rat acute toxicity study; [5]) was 175.5 mg/dL. The HCT (Rat acute toxicity study; [5]) was 50.1% and 50.075%, the HGB (Rat acute toxicity study; [5]) was 14.4 g/dL and 14.35 g/dL and the “Lymphocyte” value (Rat acute toxicity study; [5]) was 3188.0 µL⁻¹. For the same compound, the “Lymphocytes (%)” value (Rat acute toxicity study; [5]) was 83.1% and 83.125%, the MCH (Rat acute toxicity study; [5]) was 18.9 pg and the MCHC (Rat acute toxicity study; [5]) was 28.7 g/dL. For the same compound, the MCV (Rat acute toxicity study; [5]) was 65.8 fL, the “Monocyte” value (Rat acute toxicity study; [5]) was 179.5 µL⁻¹ and the “Monocytes (%)” value (Rat acute toxicity study; [5]) was 4.8%. For the same compound, the “NA/K Ratio” value (Rat acute toxicity study; [5]) was 22.3, the “Neutrophil” value (Rat acute toxicity study; [5]) was 425.0 µL⁻¹ and the “Neutrophil (%)” value (Rat acute toxicity study; [5]) was 11.4% and 11.35%. It also gave a Phosphorus (Rat acute toxicity study; [5]) of 13.0 mg/dL, a Potassium (Rat acute toxicity study; [5]) of 6.7 mmol/L and an RBC (Rat acute toxicity study; [5]) of 7.6 M/μL L. For the same compound, the Sodium (Rat acute toxicity study; [5]) was 145.8 mmol/L, the “Total Bilirubin” value (Rat acute toxicity study; [5]) was 0.1 mg/dL and the “Total Protein” value (Rat acute toxicity study; [5]) was 6.4 g/dL. For the same compound, the WBC (Rat acute toxicity study; [5]) was 3.8 K/μL, the “blood cell counts, B7-treatment versus control” value (Rat acute toxicity study; single IM 4 mg/kg, Day 7) was “no obvious change for blood cell counts” and the “blood chemistry analysis, B7 versus control” value (Rat acute toxicity study; single IM 4 mg/kg, Day 7) was “only ALP and AST were changed slightly with statistical significances”. The “gross pathology, kidney” value (Rat acute toxicity study; single IM 4 mg/kg, Day 7 necropsy, T4 = B7 rat) was “cortical surface of kidney had multiple, mild tan discolorations”, the “gross pathology, liver” value (Rat acute toxicity study; single IM 4 mg/kg, Day 7 necropsy, T = B7 rats, C = control rats) was “multifocal to coalescing mild pale tan discoloration on the surface of liver of C2, T3 and T4” and the “daily weight gain and body temperature” value (Rat acute toxicity study; single IM 4 mg/kg, Days 1-7) was “normal daily weigh gain and body temperature”. For the same compound, the “signs of abnormality during the 7-day study” value (Rat acute toxicity study; single IM 4 mg/kg, n=4) was “No signs of abnormality were observed”.
